Series [1] in a line: Evaluation of the switching behaviour of ASHS systems (carboxylic acid/base/water) under air and 1 bar of CO2. It counts as physicochemical. The settings on record: for Behaviour of the system after CO2 addition / pH under 1 bar of CO2 / pH under air: 20° C. The method, then: Base solutions were prepared by combining the desired base and water (mass for components measured in an analytical scale) into either a 10 or 25 mL graduated cylinder (containing a magnetic stir bar) depending on the final volume of the mixture obtained. The carboxylic acid (mass measured using an analytical balance prior to addition) being studied was added to the base solution, and the mixture was mixed with the help of a magnetic stir plate. The amount of base and water used were selected based on the acid:base:water ratio desired. Experiments were carried out using stoichiometric and substoichiometric amounts of the base relative to the number of mols of acid added. In addition, the quantity of water used was adjusted based on the acid:water mass ratio desired. A typical experiment would contain 1 g of the carboxylic acid; between 0.4 and 1 mol of base per mol of acid; and a water mass varying from 1 to 9.5 g.
During a typical experiment, CO2 would be added for approximately 2 h at atmospheric pressure. At the end of the 2 h, the sparge tube would be removed, and the number and volume of the phases obtained would be recorded. The pH was once again recorded. For mixtures with only 1 phase, the pH of that phase was recorded. While for mixtures with 2 phases, the pH of the aqueous phase was recorded.
In the systems in which the base:acid mole ratio and the water:acid mass ratio were being studied, a slight modification from this method was used. The acid being tested (1 g) was mixed with 1 g of water and the required amount of NaOH (based on the acid:base molar ratio desired) to prepare the mixture. […]
The base solution was then added to the carboxylic acid, and the next steps followed the procedure previously described.

The conditions of series [2]: EHA as solvent.
Series [3] in a line: Switching behaviour of ASHS systems under elevated pressures of CO2. It counts as physicochemical. The settings on record: EHA:NaOH:H2O combinations that did not become biphasic upon 1 bar of CO2.
Description: The sight gauge was kept at a constant temperature (20° C.) in a water bath. The solutions were maintained under stirring due to a magnetic stir bar controlled by a magnetic stir plate. To maximize the stirring, the vessel was placed on its side (horizontal position). The mixture was then pressurized to 10 bar of CO2 in the sight gauge. In order to determine the volume of the phases obtained, measurements of the height of the water-rich and the carboxylic acid phase were obtained using a cathetometer while the vessel was in a vertical position. The relationship between height and internal volume on the sight gauge is known. The vessel was then slowly depressurized. The phases were collected using a glass pipette.
The next series concerns fish. To be noted: 96 hr LC50 (fish); binary mixtures: worse actor; cited from earlier work.
For series [4] the following is noted: binary mixtures: score of the worse actor of the two; cited from earlier work.
For series [5] the following is noted: binary mixtures: worse actor; cited from earlier work.
The conditions of series [6]: NOEC or ECx; binary mixtures: worse actor; cited from earlier work.
For series [7] the following is noted: specific target organ toxicity, single exposure; binary mixtures: worse actor; cited from earlier work.
The conditions of series [8]: binary mixtures: worse actor; cited from earlier work. This is another data set of the same source.
The conditions of series [9]: binary mixtures: score of the worse actor of the two; cited from earlier work. This is another data set of the same source.
For series [10] the following is noted: binary mixtures: score of the worse actor of the two; cited from earlier work. The source holds these as a separate data set.
Setting [11] is: base 3DMAP, base:acid mole ratio 0.50:1, H2O:acid mass ratio 2.5:1.
The mark [12] stands for this setting: base DMEA, base:acid mole ratio 0.55:1, H2O:acid mass ratio 2.5:1.
Setting [13] is: base Jeffamine D-230 (two moles acid per mole D-230), H2O:acid mass ratio 12:1.
The mark [14] stands for this setting: base Jeffamine D-230 (two moles acid per mole D-230), H2O:acid mass ratio 15:1.
Where [15] appears, read: base MDEA, base:acid mole ratio 0.55:1, H2O:acid mass ratio 2.5:1.
[16] abbreviates: base TEA, MDEA, DMEA or 3-DMAP, base:acid mol ratio 1:1, H2O:acid mass ratio 1:1.
Setting [17] is: base TEA, MDEA, DMEA or 3-DMAP, base:acid mol ratio 1:1, H2O:acid mass ratio 2:1.
The mark [18] stands for this setting: base TEA, MDEA, DMEA or 3-DMAP, base:acid mol ratio 1:1, H2O:acid mass ratio 6:1.
Setting [19] is: base TEA, MDEA, DMEA or 3-DMAP, base:acid mol ratio 1:1, H2O:acid mass ratio 15:1.
Where [20] appears, read: base TEA, base:acid mole ratio 0.55:1, H2O:acid mass ratio 2.5:1.
Setting [21] is: substoichiometric aqueous NaOH, 0.6 to 0.7 equivalents of base.

On to `CCCCC(CC)C(=O)O` (centres unmarked) [EHA, 2-ethylhexanoic acid], for which the “pH before the addition of CO2” value in series [1] (0.8:1 NaOH:EHA mole ratio, 3:1 H2O:EHA mass ratio) came to 7.2; in series [1] (0.9:1 NaOH:EHA mole ratio, 1:1 H2O:EHA mass ratio) it was 7.5; in series [1] (0.9:1 NaOH:EHA mole ratio, 3:1 H2O:EHA mass ratio), 7.2; in [1] (0.9:1 NaOH:EHA mole ratio, 4:1 H2O:EHA mass ratio) it was 7.1; in [1] (0.9:1 NaOH:EHA mole ratio, 5:1 H2O:EHA mass ratio), 7.2. For the same compound, the “Behaviour of the system” value is on record as “did not present a switchable behaviour” in series [1] (0.8:1 NaOH:EHA mole ratio, 3:1 H2O:EHA mass ratio, 1 bar CO2); “presented a switchable behaviour” in series [1] (0.9:1 NaOH:EHA mole ratio, 5:1 H2O:EHA mass ratio, 1 bar CO2); “do not present a switchable behaviour” in series [1] (0.9:1 NaOH:EHA mole ratio, H2O:EHA mass ratio from 1:1 to 3:1, 1 bar of CO2); “become biphasic under air” in series [1] (0.9:1 NaOH:EHA mole ratio, extra water beyond 4:1 H2O:EHA mass ratio); “switchable behaviour” in series [1] (2.5:1 H2O:EHA mass ratio, 0.65 NaOH:EHA mol ratio, 1 bar CO2); “remains monophasic after CO2 addition” in [1] (2.5:1 H2O:EHA mass ratio, 0.70 NaOH:EHA mol ratio, 1 bar CO2). Further, the “Behaviour of the system” value in [1] (base NH4OH, 2:1 H2O:acid mass ratio, 1 bar CO2) is recorded as “phase switchable behaviour was not observed”; in series [1] (base NaOH, 2:1 H2O:acid mass ratio, 1 bar CO2, narrow range of base:acid ratio) it was “successful switchable behaviour”; in series [1] (base NaOH, carboxylic acid:H2O mass ratio 1:2.5, carboxylic acid:NaOH mol ratio 1:0.6), “Switchable”; in series [1] (base pyridine, 2:1 H2O:acid mass ratio), “the acid remains as a separate phase under air”. Besides, in series [1] (0.9:1 NaOH:EHA mole ratio, more water than 4:1, pH decreases from 7.1), the “pH under air, lowest value once extra water is added” value is given as 6.6. For the same compound, the “Behaviour of the system after CO2 addition” value in [1] (base 3DMAP, base:acid mole ratio 0.50:1, H2O:acid mass ratio 2.5:1, 1 bar CO2, threshold 50 vol % recovered) was “Phase separation above 50”; in series [1] (base DMEA, base:acid mole ratio 0.55:1, H2O:acid mass ratio 2.5:1, 1 bar CO2, threshold 50 vol % recovered) it was “Phase separation above 50”; in [1] (base Jeffamine D-230 (two moles acid per mole D-230), H2O:acid mass ratio 12:1, 1 bar CO2, partial = acid recovered smaller than mass added), “Partial phase separation”; in series [1] (base Jeffamine D-230 (two moles acid per mole D-230), H2O:acid mass ratio 15:1, 1 bar CO2, partial = acid recovered smaller than mass added), “Partial phase separation”; in [1] (base MDEA, base:acid mole ratio 0.55:1, H2O:acid mass ratio 2.5:1, 1 bar CO2, threshold 50 vol % recovered) it was “No phase separation”; in series [1] (base TEA, MDEA, DMEA or 3-DMAP, base:acid mol ratio 1:1, H2O:acid mass ratio 1:1, 1 bar CO2) it was “No phase separation”. Further, the “Behaviour of the system after CO2 addition” value in series [1] (base TEA, MDEA, DMEA or 3-DMAP, base:acid mol ratio 1:1, H2O:acid mass ratio 2:1, 1 bar CO2) is reported as “No phase separation”; in [1] (base TEA, MDEA, DMEA or 3-DMAP, base:acid mol ratio 1:1, H2O:acid mass ratio 6:1, 1 bar CO2), “No phase separation”; in [1] (base TEA, MDEA, DMEA or 3-DMAP, base:acid mol ratio 1:1, H2O:acid mass ratio 15:1, 1 bar CO2), “No phase separation”; in series [1] (base TEA, base:acid mole ratio 0.55:1, H2O:acid mass ratio 2.5:1, 1 bar CO2), “No phase separation”. The “pH under 1 bar of CO2” value in series [1] (setting [11]) was 6.64; in series [1] (setting [12]) it was 6.69; in [1] (setting [13]), 6.94; in [1] (setting [14]), 6.74; in [1] (setting [15]), 6.61; in [1] (setting [16]), 7.50-8.05. The “pH under 1 bar of CO2” value in series [1] (setting [17]) is recorded as 7.20-7.60; in [1] (setting [18]), 6.20-6.70; in [1] (setting [19]) it was 6.60-6.80; in [1] (setting [20]), 6.53. Moreover, the pH under air was 6.53 in series [1] (setting [11]); 6.57 in series [1] (setting [12]); 6.98 in [1] (setting [13]); 8.34 in series [1] (setting [14]); 6.50 in series [1] (setting [15]); 7.50-8.30 in series [1] (setting [16]). In addition, the pH under air in series [1] (setting [17]) is recorded as 8.00-8.15; in series [1] (setting [18]), 7.50-8.10; in series [1] (setting [19]), 6.80-7.90; in series [1] (setting [20]), 6.48. In addition, the “Phase behaviour upon addition of 1 bar of CO2” value in [1] (base Jeffamine D-230, TEA, MDEA, DMEA or 3DMAP, base:acid mole ratio 1:1, water:acid mass ratio 15:1 and other ratios) is reported as “no phase separation was observed”. In series [1] (setting [21]), the “Phase behaviour upon addition of CO2” value was “phase separation was observed”. Further, in series [1] (setting [21]), the Phases under air entry is “one phase”. Moreover, the “maximum EPS loading that still allows the next steps” value in [2] worked out at 5 wt %. For the same compound, the “Behaviour upon the addition of 10 bar of CO2” value in series [3] was “successful switchable behaviour”.
With `CCCCN(CCO)CCCC` [Bu2NCH2CH2OH, N,N-dibutylethanolamine], in the series with fish, the “Acute aquatic toxicity, GHS category” value is 3 (category 3 (H402) means 10 < 96 hr LC50 (fish) ≤ 100 mg/L). Also, the “Acute toxicity (dermal), GHS category” value in series [4] is on record as 4 (category 4 (H312) means 1000 < LD50 ≤ 2000 mg/kg). Moreover, in series [5], the “Skin irritation, GHS category” value was 1C. In [6], the “Chronic aquatic toxicity, GHS category” value is given as 3 (category 3 (H412) means 0.1 < NOEC or ECx ≤ 1). Besides, in [7], the “Organ toxicity, GHS category” value is recorded as 3. The “Eye irritation, GHS category” value in [8] was 1. In series [9], the “Acute toxicity (oral), GHS category” value is given as 4 (category 4 (H302) means 300 < LD50 ≤ 2000 mg/kg).
For `CN(C)C1CCCCC1` [CyNMe2], the “Acute aquatic toxicity, GHS category” value in the series with fish is given as 1 (Category 1 (H400) means 96 hr LC50 (fish) ≤ 1.0 mg/L). Besides, the “Acute toxicity (dermal), GHS category” value in series [4] is 3 (Category 3 (H311) means 200 < LD50 ≤ 1000 mg/kg). Further, in series [10], the “Acute toxicity (inhalation), GHS category” value is given as 3 (category 3 (H331) means 2 < LC50 ≤ 10 mg/L). Besides, the “Acute toxicity (oral), GHS category” value in [9] is listed as 3 (Category 3 (H301) means 50 < LD50 ≤ 300 mg/kg).
